Values quoted from earlier work, collected in patent US20170189402A1, “SOLID DOSAGE FORMS” (AbbVie Inc., priority 2012, published 2017).

What was measured:
[1] = administered orally

Compound	solubility	bioavailability [1]
Cc1cccc(C)c1OCC(=O)N[C@@H](Cc1ccccc1)[C@@H](O)C[C@H](Cc1ccccc1)NC(=O)[C@H](C(C)C)N1CCCNC1=O [lopinavir]	poorly soluble	
Nc1ccn([C@@H]2CS[C@H](CO)O2)c(=O)n1 [Lamivudine]		over 80%
